Measured values: US9913849B2, “Treatment of migraines” (Manistee Partners LLC, priority 2014, dated 2018)
Like-named read-outs stand apart in the source and are kept apart here.

Tests used:
[1] = cited from earlier work
[2] = tested on: subject with a history of migraine headaches; assay: Migraine case reports, topical administration to the eye(s); assay type: in vivo, human; settings: Example 1: person, 0.0004% single drop in both eyes once per day in the evening, 30 days
Experimental: A subject was treated with ocular administration of travoprost 0.0004% once per day as a single drop in both eyes in the evening. The subject reported that they had no migraines after being on therapy for 30 days.
A person with a fifteen year history of severe migraine headaches refractory to multiple therapies, started treatment with TRAVATAN Z® (travoprost ophthalmic solution) administered topically to one eye daily.
A person with a history of migraine headaches (one per week) was started on daily topical administration of the prostaglandin, XALATAN® (latanoprost ophthalmic solution), to both eyes daily.

[3] = one drop 0.0015% solution once daily into each eye, cited from earlier work
[4] = cited from earlier work; remark: listed apart in the source
[5] = cited from earlier work; remark: listed apart in the source
[6] = blood, days 7 and 14, 0.03% once daily to both eyes

CC(C)OC(=O)CCC/C=C\C[C@@H]1[C@@H](CC[C@@H](O)CCc2ccccc2)[C@H](O)C[C@@H]1O [Latanoprost, isopropyl-(Z)7[(1R,2R,3R,5S)3,5-dihydroxy-2-[(3R)-3-hydroxy-5-phenylpentyl]cyclopentyl]-5-heptenoate, reference compound]
distribution volume ([1]; in humans): 0.16 ± 0.02 L/kg

CC(C)OC(=O)CCC/C=C\C[C@@H]1[C@@H](/C=C/[C@@H](O)COc2cccc(C(F)(F)F)c2)[C@H](O)C[C@@H]1O (relative stereo) [travoprost, [1R-[1α(Z),2β(1E,3R*),3α, 5α]]-7-[3,5-Dihydroxy-2-[3-hydroxy-4-[3-(trifluoromethyl)phenoxy]-1-butenyl]cyclopentyl]-5-heptenoic acid, 1-methylethylester]
migraines reported on therapy [2]: no migraines

O=C(O)CCC/C=C\C[C@@H]1[C@@H](/C=C/C(F)(F)COc2ccccc2)[C@H](O)C[C@@H]1O [tafluprost acid]
mean plasma AUC estimate of tafluprost acid ([3]; Day 1): 394 pg·min/mL
mean plasma Cmax of tafluprost acid ([3]; Day 1): 0.026 ng/mL
mean plasma AUC estimate of tafluprost acid ([3]; Day 8): 432 pg·min/mL
mean plasma Cmax of tafluprost acid ([3]; Day 8): 0.027 ng/mL
median time at which plasma concentrations of tafluprost acid peaked ([3]; healthy volunteers, both Days 1 and 8): 10 min

O=C(O)CCC/C=C\C[C@@H]1[C@@H](CC[C@@H](O)CCc2ccccc2)[C@H](O)C[C@@H]1O [acid of latanoprost]
time during which the acid can be measured in aqueous humor ([1]; after local administration): ≤ 4 h
time during which the acid can be measured in plasma ([1]; after local administration): only during the first hour

CCNC(=O)CCC/C=C\C[C@@H]1[C@@H](/C=C/[C@@H](O)CCc2ccccc2)[C@H](O)C[C@@H]1O [Bimatoprost, (Z)-7-[(1R,2R,3R,5S)-3,5Dihydroxy-2-[(1E,3S)-3-hydroxy-5-phenyl-1-pentenyl]cyclopentyl]-5-N-ethylheptenamide]
mean AUCO-24 hr [4, 6]: ~0.09 ng·h/mL
mean Cmax [4, 6]: approximately 0.08 ng/mL
distribution in human blood ([4]; human blood): resides mainly in the plasma
steady-state volume of distribution ([4]; human, in vivo): 0.67 L/kg
blood concentration (below lower limit of detection) ([4]; in most subjects within 1.5 hours after dosing, 0.03% once daily to both eyes): < 0.025 ng/mL
time at which blood concentrations peaked after dosing ([4]; one drop 0.03% once daily to both eyes, 15 healthy subjects, two weeks): ≤ 10 min

O=C(O)CCC/C=C\C[C@@H]1[C@@H](/C=C/[C@@H](O)COc2cccc(C(F)(F)F)c2)[C@H](O)C[C@@H]1O [travoprost free acid]
mean plasma Cmax ([5]; individuals with quantifiable plasma concentrations (N=38)): 0.018 ± 0.007 ng/mL
plasma concentrations of the free acid (below quantitation limit of the assay) ([5]; single drop daily in both eyes, in two-thirds of the subjects): below 0.01 ng/ml
